Results published in EP4685149A1, “NOVEL COMPOUND AS ENDOTHELIAL TO MESENCHYMAL TRANSITION (ENDMT) INHIBITOR, AND PHARMACEUTICAL COMPOSITION COMPRISING SAME” (Korea Institute of Radiological & Medical Sciences, priority 2023, dated 2024).
Like-named read-outs stand apart in the source and are kept apart here.

Test system: human vascular endothelial cell lines
Test: Inhibition of radiation-induced endothelial cell transition (EndMT), phalloidin immunofluorescence staining
Type: cell-based
Details: 10 uM test substance 1 hour before 10 Gy irradiation, 72 hours after irradiation, relative ratio with IR group (10 Gy alone) as 100%; for activity at 10 µM: Homo sapiens, Endothelial cell, light or radiation study
Protocol: Test substances (Examples 1 to 45) were treated with a 10 mM DMSO solution at a ratio of 1 µL per 1 mL of cell culture medium to a final concentration of 10 uM, and the test substances were treated 1 hour before irradiation on human vascular endothelial cell lines (Promocell, Germany), and then, it was irradiated at an intensity of 10 Gy. 72 hours after irradiation, the human vascular endothelial cell lines were fixed with 10% formalin, and the experiment was conducted according to the manufacturer's method using phalloidin (Invitrogen, USA) to confirm the cytoskeleton filaments that increase during fibrosis. Phalloidin is a protein that binds to the actin of cytoskeleton filaments, and phalloidin conjugated with FITC fluorescent substance made the cytoskeleton filaments appear green when observed under a microscope.
After treatment with the test substance, the area, length and density of phalloidin were measured by using a confocal microscope, and the relative ratio was expressed with the irradiated group (IR group) that was irradiated with 10 Gy alone as 100% (Table 1).

Work on `COc1ccc2c(c1)[C@H](Nc1nc(Cl)nc3c1ncn3[C@@H]1SC[C@@H](O)[C@H]1O)CC2` [Example 13, (2R,3R,4S)-2-[2-chloro-6-[[(1R)-6-methoxyindan-1-yl]amino]purin-9-yl]tetrahydrothiophene-3,4-diol] yielded an activity at 10 µM (read-out: Palloidin Area) of 50 to 80%, an activity at 10 µM (read-out: Palloidin Intensity) of 50 to 80% and an activity at 10 µM (read-out: Palloidin Length) of 50 to 80%.
Compound `COc1cccc2c1[C@H](Nc1nc(Cl)nc3c1ncn3[C@@H]1SC[C@@H](O)[C@H]1O)CC2` [Example 14, (2R,3R,4S)-2-[2-chloro-6-[[(1R)-7-methoxyindan-1-yl]amino]purin-9-yl]tetrahydrothiophene-3,4-diol] has an activity at 10 µM (read-out: Palloidin Area) of 50 to 80%, an activity at 10 µM (read-out: Palloidin Intensity) of 50 to 80% and an activity at 10 µM (read-out: Palloidin Length) of 50 to 80%.
For `O[C@@H]1[C@H](O)CS[C@H]1n1cnc2c(N[C@@H]3CCc4c(F)cccc43)nc(Cl)nc21` [Example 15, (2R,3R,4S)-2-[2-chloro-6-[[(1R)-4-fluoroindan-1-yl]amino]purin-9-yl]tetrahydrothiophene-3,4-diol], the activity at 10 µM (read-out: Palloidin Area) was < 20%, the activity at 10 µM (read-out: Palloidin Intensity) was < 20% and the activity at 10 µM (read-out: Palloidin Length) was < 20%.
For `O[C@@H]1[C@H](O)CS[C@H]1n1cnc2c(N[C@@H]3CCc4cc(F)ccc43)nc(Cl)nc21` [Example 16, (2R,3R,4S)-2-[2-chloro-6-[[(1R)-5-fluoroindan-1-yl]amino]purin-9-yl]tetrahydrothiophene-3,4-diol], the activity at 10 µM (read-out: Palloidin Area) was < 20%, the activity at 10 µM (read-out: Palloidin Intensity) was < 20% and the activity at 10 µM (read-out: Palloidin Length) was < 20%.
For `O[C@@H]1[C@H](O)CS[C@H]1n1cnc2c(N[C@@H]3CCc4c(Cl)cccc43)nc(Cl)nc21` [Example 17, (2R,3R,4S)-2-[2-chloro-6-[[(1R)-4-chloroindan-1-yl]amino]purin-9-yl]tetrahydrothiophene-3,4-diol], the activity at 10 µM (read-out: Palloidin Area) was < 20%, the activity at 10 µM (read-out: Palloidin Intensity) was < 20% and the activity at 10 µM (read-out: Palloidin Length) was < 20%.
In the case of `O[C@@H]1[C@H](O)CS[C@H]1n1cnc2c(N[C@@H]3CCc4cc(Cl)ccc43)nc(Cl)nc21` [Example 18, (2R,3R,4S)-2-[2-chloro-6-[[(1R)-5-chloroindan-1-yl]amino]purin-9-yl]tetrahydrothiophene-3,4-diol], the activity at 10 µM (read-out: Palloidin Area) is reported as < 20%, the activity at 10 µM (read-out: Palloidin Intensity) is reported as < 20% and the activity at 10 µM (read-out: Palloidin Length) is reported as < 20%.
`O[C@@H]1[C@H](O)CS[C@H]1n1cnc2c(N[C@@H]3CCc4c(Br)cccc43)nc(Cl)nc21` [Example 19, (2R,3R,4S)-2-[2-chloro-6-[[(1R)-4-bromoindan-1-yl]amino]purin-9-yl]tetrahydrothiophene-3,4-diol] showed an activity at 10 µM (read-out: Palloidin Area) of 20 to 50%, an activity at 10 µM (read-out: Palloidin Intensity) of 20 to 50% and an activity at 10 µM (read-out: Palloidin Length) of 20 to 50%.
For `O[C@@H]1[C@H](O)CS[C@H]1n1cnc2c(N[C@@H]3CCc4cc(Br)ccc43)nc(Cl)nc21` [Example 20, (2R,3R,4S)-2-[2-chloro-6-[[(1R)-5-bromoindan-1-yl]amino]purin-9-yl]tetrahydrothiophene-3,4-diol], the activity at 10 µM (read-out: Palloidin Area) was < 20%, the activity at 10 µM (read-out: Palloidin Intensity) was 20 to 50% and the activity at 10 µM (read-out: Palloidin Length) was < 20%.
Work on `O[C@@H]1[C@H](O)CS[C@H]1n1cnc2c(N[C@@H]3CCc4ccc(Br)cc43)nc(Cl)nc21` [Example 21, (2R,3R,4S)-2-[2-chloro-6-[[(1R)-6-bromoindan-1-yl]amino]purin-9-yl]tetrahydrothiophene-3,4-diol] yielded an activity at 10 µM (read-out: Palloidin Area) of 20 to 50%, an activity at 10 µM (read-out: Palloidin Intensity) of 20 to 50% and an activity at 10 µM (read-out: Palloidin Length) of 20 to 50%.
With `Cc1cccc2c1CC[C@H]2Nc1nc(Cl)nc2c1ncn2[C@@H]1SC[C@@H](O)[C@H]1O` [Example 22, (2R,3R,4S)-2-[2-chloro-6-[[(1R)-4-methylindan-1-yl]amino]purin-9-yl]tetrahydrothiophene-3,4-diol] the “Palloidin Length” value was “+ + + +”, the activity at 10 µM (read-out: Palloidin Area) was < 20% and the activity at 10 µM (read-out: Palloidin Intensity) was < 20%.
For `O[C@@H]1[C@H](O)CS[C@H]1n1cnc2c(N[C@@H]3CCc4c3cccc4C(F)(F)F)nc(Cl)nc21` [Example 23, (2R,3R,4S)-2-[2-chloro-6-[[(1R)-4-(trifluoromethyl)indan-1-yl]amino]purin-9-yl]tetrahydrothiophene-3,4-diol], the activity at 10 µM (read-out: Palloidin Area) was > 80%, the activity at 10 µM (read-out: Palloidin Intensity) was > 80% and the activity at 10 µM (read-out: Palloidin Length) was > 80%.
Compound `N#Cc1cccc2c1CC[C@H]2Nc1nc(Cl)nc2c1ncn2[C@@H]1SC[C@@H](O)[C@H]1O` [Example 24, (1R)-1-[[2-chloro-9-[(2R,3R,4S)-3,4-dihydroxytetrahydrothiophen-2-yl]purin-6-yl]amino]indane-4-carbonitrile] has an activity at 10 µM (read-out: Palloidin Area) of 50 to 80%, an activity at 10 µM (read-out: Palloidin Intensity) of 50 to 80% and an activity at 10 µM (read-out: Palloidin Length) of 50 to 80%.
With `NC(=O)c1cccc2c1CC[C@H]2Nc1nc(Cl)nc2c1ncn2[C@@H]1SC[C@@H](O)[C@H]1O` [Example 25, (R)-1-((2-chloro-9-((2R,3R,4S)-3,4-dihydroxytetrahydrothiophen-2-yl)-9H-purin-6-yl)amino)-2,3-dihydro-1H-indene-4-carboxamide] the activity at 10 µM (read-out: Palloidin Area) was > 80%, the activity at 10 µM (read-out: Palloidin Intensity) was > 80% and the activity at 10 µM (read-out: Palloidin Length) was > 80%.
For `O[C@@H]1[C@H](O)CS[C@H]1n1cnc2c(N[C@@H]3CCc4cccc(Br)c43)nc(Cl)nc21` [Example 26, (2R,3R,4S)-2-[2-chloro-6-[[(1R)-7-bromoindan-1-yl]amino]purin-9-yl]tetrahydrothiophene-3,4-diol], the activity at 10 µM (read-out: Palloidin Area) was 20 to 50%, the activity at 10 µM (read-out: Palloidin Intensity) was 50 to 80% and the activity at 10 µM (read-out: Palloidin Length) was 50 to 80%.
`Cc1ccc2c(c1)CC[C@H]2Nc1nc(Cl)nc2c1ncn2[C@@H]1SC[C@@H](O)[C@H]1O` [Example 27, (2R,3R,4S)-2-[2-chloro-6-[[(1R)-5-methylindan-1-yl]amino]purin-9-yl]tetrahydrothiophene-3,4-diol] was tested, and the activity at 10 µM (read-out: Palloidin Area) was > 80%, the activity at 10 µM (read-out: Palloidin Intensity) was > 80% and the activity at 10 µM (read-out: Palloidin Length) was > 80%.
In the case of `O[C@@H]1[C@H](O)CS[C@H]1n1cnc2c(N[C@@H]3CCc4cc(C(F)(F)F)ccc43)nc(Cl)nc21` [Example 28, (2R,3R,4S)-2-[2-chloro-6-[[(1R)-5-(trifluoromethyl)indan-1-yl]amino]purin-9-yl]tetrahydrothiophene-3,4-diol], the activity at 10 µM (read-out: Palloidin Area) is reported as 50 to 80%, the activity at 10 µM (read-out: Palloidin Intensity) is reported as 50 to 80% and the activity at 10 µM (read-out: Palloidin Length) is reported as > 80%.
`N#Cc1ccc2c(c1)CC[C@H]2Nc1nc(Cl)nc2c1ncn2[C@@H]1SC[C@@H](O)[C@H]1O` [Example 29, (1R)-1-[[2-chloro-9-[(2R,3R,4S)-3,4-dihydroxytetrahydrothiophen-2-yl]purin-6-yl]amino]indane-5-carbonitrile] was tested, and the activity at 10 µM (read-out: Palloidin Area) was 50 to 80%, the activity at 10 µM (read-out: Palloidin Intensity) was 50 to 80% and the activity at 10 µM (read-out: Palloidin Length) was > 80%.
With `COC(=O)c1cccc2c1CC[C@H]2Nc1nc(Cl)nc2c1ncn2[C@@H]1SC[C@@H](O)[C@H]1O` [Example 30, Methyl (R)-1-((2-chloro-9-((2R,3R,4S)-3,4-dihydroxytetrahydrothiophen-2-yl)-9H-purin-6-yl)amino)-2,3-dihydro-1H-indene-4-carboxylate] the activity at 10 µM (read-out: Palloidin Area) was > 80%, the activity at 10 µM (read-out: Palloidin Intensity) was > 80% and the activity at 10 µM (read-out: Palloidin Length) was > 80%.
For `COC(=O)c1ccc2c(c1)CC[C@H]2Nc1nc(Cl)nc2c1ncn2[C@@H]1SC[C@@H](O)[C@H]1O` [Example 31, Methyl (R)-1-((2-chloro-9-((2R,3R,4S)-3,4-dihydroxytetrahydrothiophen-2-yl)-9H-purin-6-yl)amino)-2,3-dihydro-1H-indene-5-carboxylate], the activity at 10 µM (read-out: Palloidin Area) was > 80%, the activity at 10 µM (read-out: Palloidin Intensity) was > 80% and the activity at 10 µM (read-out: Palloidin Length) was > 80%.
For `O=C(O)c1cccc2c1CC[C@H]2Nc1nc(Cl)nc2c1ncn2[C@@H]1SC[C@@H](O)[C@H]1O` [Example 32, (R)-1-((2-chloro-9-((2R,3R,4S)-3,4-dihydroxytetrahydrothiophen-2-yl)-9H-purin-6-yl)amino)-2,3-dihydro-1H-indene-4-carboxylic acid], the activity at 10 µM (read-out: Palloidin Area) was > 80%, the activity at 10 µM (read-out: Palloidin Intensity) was > 80% and the activity at 10 µM (read-out: Palloidin Length) was > 80%.
